In US20220409629A1, “BENZODIAZEPINE DERIVATIVES FOR TREATING A RESPIRATORY SYNCYTIAL VIRUS (RSV) INFECTION” (priority 2019, published 2022):

Key:
Cell cytotoxicity CC50 = assay type: cell-based; settings: human; mean of at least two experiments
[1] = Liver microsomal stability, human; assay type: in vitro ADME; settings: pH 7.4; human liver microsomes, 0.5 mg/mL protein, 1 μM compound, NADPH; >80% remaining at 45 min denoted >140; read-out: Liver Microsomal Stability: t1/2 (min); human
Procedure: (§1) Compounds were subjected to the following assays to investigate liver microsomal stability, permeability and plasma protein binding.
(§2) Pooled liver microsomes were purchased from a reputable commercial supplier and stored at −80° C. prior to use. Microsomes (final protein concentration 0.5 mg/mL), 0.1 M phosphate buffer pH 7.4 and test compound (final substrate concentration 1 μM; final DMSO concentration 0.25%) were pre-incubated at 37° C. prior to the addition of NADPH (final concentration 1 mM) to initiate the reaction. The final incubation volume was 50 μL. A control incubation was included for each compound tested where 0.1 M phosphate buffer pH 7.4 was added instead of NADPH (minus NADPH). Two control compounds were included with each species. All incubations were performed singularly for each test compound. Each compound was incubated for 0, 5, 15, 30 and 45 min. The control (minus NADPH) was incubated for 45 min only. The reactions were stopped by transferring incubate into acetonitrile at the appropriate time points, in a 1:3 ratio. The termination plates are centrifuged at 3,000 rpm for 20 min at 4° C. to precipitate the protein. Following protein precipitation, the sample supernatants were combined in cassettes of up to 4 compounds, internal standard added, and samples analysed by LC-MS/MS. From a plot of ln peak area ratio (compound peak area/internal standard peak area) against time, the gradient of the line was determined. Subsequently, half-life (t1/2) and intrinsic clearance (CLint) were calculated.

RSV A2 = experiment: RSV plaque reduction assay; assay type: cell-based, respiratory syncytial virus (RSV); settings: human respiratory syncytial virus, HepG2; Hep-G2 cells, RSV A2, mean of at least two experiments
Procedure: Compounds were subjected to RSV plaque reduction assays according to the following protocol.
Hep-G2 cells (ECACC, 85011430) were passaged in flasks and seeded in 24-well plates in DMEM containing antibiotics and supplemented with 10% FBS. During inoculation and subsequent incubation, cells were cultured in DMEM containing 2% FBS. 100 plaque forming unit/well of RSV (RSV A2 ECACC, 0709161v) was mixed with eight serial dilutions of compound. Subsequently, 100 μL of the virus/compound mixtures was added to confluent Hep-G2 cell monolayers. The cells and virus/compound mixtures were incubated at 37° C. in a humidified 5% CO2 incubator for 2 h prior to removal of the inoculum and addition of 1 mL of overlay (DMEM containing 2% FBS and 0.8% CMC) containing compound dilutions. The cells and were incubated at 37° C. in a humidified 5% CO2 incubator for 2 days.
Cells were washed with PBS before adding 75/25% v/v EtOH/MeOH, for 3 min. Fixative was removed and plates were washed with PBS. A pre-titrated amount of the primary antibody was added in 200 μL PBS/2% milk powder, and plates incubated for 90 min at 37° C. The plates were washed 3 times with PBS/0.05% Tween20 before addition of rabbit anti-goat horse radish peroxidase in 200 μL PBS/2% milk powder, and incubated for 1 h at 37° C. Following three wash steps with PBS/0.05% Tween20, 200 μL ready-to-use TrueBlue was added and plates were incubated at rt for 10-15 min before washing with water. After removal of water, plates were air-dried in the dark.
Plates were scanned and analysed using the Immunospot S6 Macro analyser, which is equipped with BioSpot analysis software for counting immunostained plaques (virospots). Plaque counts were used to calculate % infection relative to the mean of the plaque count in the virus control wells for RSV. The EC50 value was calculated as 50% reduction in signal, respectively, by interpolation of inhibition curves fitted with a 4-parameter nonlinear regression with a variable slope in Dotmatics. Plaque EC50 and cell toxicity CC50 values are a mean of at least two experiments and figures are rounded to whole units.

[2] = Liver microsomal stability, rat; assay type: in vitro ADME; settings: pH 7.4; rat liver microsomes, 0.5 mg/mL protein, 1 μM compound, NADPH; >80% remaining at 45 min denoted >140; read-out: Liver Microsomal Stability: t1/2 (min); rat
Procedure: as §1, §2

[3] = Liver microsomal stability, dog; assay type: in vitro ADME; settings: pH 7.4; dog liver microsomes, 0.5 mg/mL protein, 1 μM compound, NADPH; >80% remaining at 45 min denoted >140; read-out: Liver Microsomal Stability: t1/2 (min); dog
Procedure: as §1, §2

Row | SMILES | CC50 (Cell cytotoxicity CC50) | half-life [1] | EC50 (RSV A2) | half-life [2] | half-life [3]
1 | CCNc1cnc(-c2c(C(=O)N[C@H]3N=C(c4ccccc4)c4cccc(F)c4NC3=O)cnn2CC)c(F)c1 [Example 13, 1-Ethyl-5-[5-(ethylamino)-3-fluoropyridin-2-yl]-N-[(3S)-9-fluoro-2-oxo-5-phenyl-1,3-dihydro-1,4-benzodiazepin-3-yl]pyrazole-4-carboxamide] | > 25000 nM | 42.9 min | 68 nM | 9.6 min | 35.6 min
2 | CCNc1ccc(-c2c(C(=O)N[C@H]3N=C(c4ccccc4)c4ccccc4NC3=O)cnn2C2CC2)c(F)n1 [Example 14, 1-Cyclopropyl-5-[6-(ethylamino)-2-fluoropyridin-3-yl]-N-[(3S)-2-oxo-5-phenyl-1,3-dihydro-1,4-benzodiazepin-3-yl]pyrazole-4-carboxamide] | > 25000 nM | 93.7 min | 95 nM | 37.9 min | 59.3 min
3 | O=C(N[C@H]1N=C(c2ccccc2)c2ccccc2NC1=O)c1cnn(C2CC2)c1-c1ccc(NC2CC2)nc1F [Example 15, 1-Cyclopropyl-5-[6-(cyclopropylamino)-2-fluoropyridin-3-yl]-N-[(3S)-2-oxo-5-phenyl-1,3-dihydro-1,4-benzodiazepin-3-yl]pyrazole-4-carboxamide] | > 25000 nM | 72.3 min | 51 nM | 69.8 min | 57.7 min
4 | CC(C)n1ncc(C(=O)N[C@H]2N=C(c3ccccc3)c3ccccc3NC2=O)c1-c1ccc(NC2CC2)nc1F [Example 16, 5-[6-(Cyclopropylamino)-2-fluoropyridin-3-yl]-N-[(3S)-2-oxo-5-phenyl-1,3-dihydro-1,4-benzodiazepin-3-yl]-1-propan-2-ylpyrazole-4-carboxamide] | > 25000 nM | 50.6 min | 50 nM | 72.7 min | 22.2 min
5 | CCn1ncc(C(=O)N[C@H]2N=C(c3ccccc3)c3cccc(F)c3NC2=O)c1-c1ncc(NC(C)C)cc1F [Example 17, 1-Ethyl-N-[(3S)-9-fluoro-2-oxo-5-phenyl-1,3-dihydro-1,4-benzodiazepin-3-yl]-5-[3-fluoro-5-(propan-2-ylamino)pyridin-2-yl]pyrazole-4-carboxamide] | > 25000 nM | 120 min | 52 nM | 318 min | 68.9 min
6 | O=C(N[C@H]1N=C(c2ccccc2)c2ccccc2NC1=O)c1cnn(C2COC2)c1-c1ccc(NC2CC2)nc1F [Example 18, 5-[6-(Cyclopropylamino)-2-fluoropyridin-3-yl]-1-(oxetan-3-yl)-N-[(3S)-2-oxo-5-phenyl-1,3-dihydro-1,4-benzodiazepin-3-yl]pyrazole-4-carboxamide] | > 25000 nM | 144 min | 83 nM | 93.5 min | 149 min
7 | CCCNc1ccc(-c2nn(CC)cc2C(=O)N[C@H]2N=C(c3ccccc3)c3ccccc3NC2=O)c(F)n1 [Example 27, 1-Ethyl-3-[2-fluoro-6-(propylamino)pyridin-3-yl]-N-[(3S)-2-oxo-5-phenyl-1,3-dihydro-1,4-benzodiazepin-3-yl]pyrazole-4-carboxamide] | > 25000 nM | 43.1 min | 57 nM | 23.9 min | 12.6 min
8 | CCCNc1ccc(-c2nn(CC)cc2C(=O)N[C@H]2N=C(c3ccccc3)c3cccc(F)c3NC2=O)c(F)n1 [Example 28, 1-Ethyl-N-[(3S)-9-fluoro-2-oxo-5-phenyl-1,3-dihydro-1,4-benzodiazepin-3-yl]-3-[2-fluoro-6-(propylamino)pyridin-3-yl]pyrazole-4-carboxamide] | > 25000 nM | 41 min | 39 nM | 22.7 min | 30.8 min
9 | CC(C)(C)n1cc(C(=O)N[C@H]2N=C(c3ccccc3)c3ccccc3NC2=O)c(-c2ccc(NC3CC3)nc2F)n1 [Example 29, 1-tert-butyl-3-[6-(cyclopropylamino)-2-fluoropyridin-3-yl]-N-[(3S)-2-oxo-5-phenyl-1,3-dihydro-1,4-benzodiazepin-3-yl]pyrazole-4-carboxamide] | > 25000 nM | 73.9 min | 54 nM | 45.2 min | 44 min
10 | O=C(N[C@H]1N=C(c2ccccc2)c2ccccc2NC1=O)c1cn(C2CCOCC2)nc1-c1ccc(NC2CC2)nc1F [Example 31, 3-[6-(Cyclopropylamino)-2-fluoropyridin-3-yl]-1-(oxan-4-yl)-N-[(3S)-2-oxo-5-phenyl-1,3-dihydro-1,4-benzodiazepin-3-yl]pyrazole-4-carboxamide] | > 25000 nM | 116 min | 55 nM | 36.3 min | 65.7 min
11 | O=C(N[C@H]1N=C(c2ccccc2)c2cccc(F)c2NC1=O)c1cn(CC(F)(F)F)nc1-c1ccc(NC2CC2)nc1F [Example 33, 3-[6-(Cyclopropylamino)-2-fluoropyridin-3-yl]-N-[(3S)-9-fluoro-2-oxo-5-phenyl-2,3-dihydro-1H-1,4-benzodiazepin-3-yl]-1-(2,2,2-trifluoroethyl)-1H-pyrazole-4-carboxamide] | > 25000 nM | 80.3 min | 80 nM | 56 min | 81 min
12 | O=C(N[C@H]1N=C(c2ccccc2)c2ccccc2NC1=O)c1cn(C2CCC(F)(F)CC2)nc1-c1ccc(NC2CC2)nc1F [Example 34, 3-[6-(Cyclopropylamino)-2-fluoropyridin-3-yl]-1-(4,4-difluorocyclohexyl)-N-[(3S)-2-oxo-5-phenyl-1,3-dihydro-1,4-benzodiazepin-3-yl]pyrazole-4-carboxamide] | > 25000 nM | 119 min | 96 nM | 121 min | 85.8 min
13 | O=C(N[C@H]1N=C(c2ccccc2)c2cccc(F)c2NC1=O)c1cn(C2CCC(F)(F)CC2)nc1-c1ccc(NC2CC2)nc1F [Example 35, 3-[6-(Cyclopropylamino)-2-fluoropyridin-3-yl]-1-(4,4-difluorocyclohexyl)-N-[(3S)-9-fluoro-2-oxo-5-phenyl-1,3-dihydro-1,4-benzodiazepin-3-yl]pyrazole-4-carboxamide] | > 25000 nM | 164 min | 60 nM | 181 min | 90.9 min
14 | CCn1ncc(C(=O)N[C@H]2N=C(c3ccccc3)c3ccccc3NC2=O)c1-c1ncc(NC)cc1F [Example 38, 1-Ethyl-5-(3-fluoro-5-(methylamino)pyridin-2-yl)-N—((S)-2-oxo-5-phenyl-2,3-dihydro-1H-benzo[e][1,4]diazepin-3-yl)-1H-pyrazole-4-carboxamide] | > 25000 nM | 35.2 min | 105 nM | 42 min | 48.6 min
15 | CCNc1cnc(-c2c(C(=O)N[C@H]3N=C(c4ccccc4)c4ccccc4NC3=O)cnn2CC)c(F)c1 [Example 39, 1-Ethyl-5-[5-(ethylamino)-3-fluoropyridin-2-yl]-N-[(3S)-2-oxo-5-phenyl-1,3-dihydro-1,4-benzodiazepin-3-yl]pyrazole-4-carboxamide] | > 25000 nM | 62 min | 62 nM | 21.4 min | 45.7 min
